Reference: patent US12552776B2, “Crystalline forms” (priority 2021, dated 2026)
Where a name gives a salt, the structure may show the parent alone.

What was measured:
[1] = Photostability study, D65 lamp 4000 lux, 25° C./60% RH, HPLC; assay type: physicochemical
Method: (§1) • HPLC data are obtained by Waters Alliance 2695 HPLC system with 2996 PDA detector using the following conditions; • Column: XBridge Phenyl (3.5 micrometers, 4.6×150 mm), • Eluent: acetonitrile/0.3% perchloric acid=35:65, • Detection: UV at 215 nm, • Flow rate: 1 mL/min, and • Column temperature: 40° C.
Photostability samples are set in Nagano Science LTL-200D3CJ-14. The samples are placed in the chamber and stored under 25° C./60% RH condition and irradiated with a D65 lamp on light condition of 4000 lux. HCl-salt Crystalline Form A, HCl-salt Amorphous, and Free-base Amorphous samples store for 13, 26 and 50 days under the condition are analyzed by HPLC, respectively.
FIGS. 7, 8 and 9 show the data of degradation products except for the existing products at initial samples (Day 0), i.e., definitely arising peaks on the HPLC chart after storing initial samples under light exposure. The relative retention time (RRT) represents a ratio of retention time (RT) of a target peak to RT of the main peak. In case of the appearance of the peak at same RRT at least two consecutive storing periods of 13, 26 and 50 days, the arising peak is recognized as a degradation product.

[2] = assay type: physicochemical; details: for other arising degradation products (not existing at Day 0) / remaining: 40° C./75% RH, storage period of 50 days, HPLC
Method: as §1
Solid-state stability study is performed using Nagano Science Constant temperature/humidity control chamber LH-20-11M, LH-21-11M, LTL-200D3CJ-14 or LTX-01. The samples are placed in the chamber and exposed under 25° C./60% RH, 40° C./75% RH and/or irradiated with the light such as D65 lamp or Xenon lamp. The crystalline form, thermal behavior, purity and/or weight change of the resultant sample after the exposure or irradiation are evaluated by XRPD, TG/DTA or DSC, HPLC, microbalance, respectively.

[3] = Hygroscopicity study by dynamic vapor sorption (DVS) analysis; assay type: physicochemical; details: for weight gain %: 25° C., DVS sorption; for water absorbed (water adsorption): 90% RH at 25° C.
Method: Hygroscopicity study is performed using Surface Measurement Systems DVS-1. The sample is placed on a microbalance in the instrument and the weight change during the sorption at 25° C. is monitored. One of the programs consists of a sorption scan from 0 to 90% relative humidity (RH) at 5% RH increments and the sample is allowed to equilibrate for 360 minutes or until equilibration had been attained at each step.
The hygroscopicity study is performed by using dynamic vapor sorption (DVS) analysis.

Chiral analysis by HPLC = assay type: physicochemical; details: CHIRALPAK IC HPLC
Method: • High Performance Liquid Chromatography (HPLC) measurement • HPLC data are obtained by Waters Alliance 2695 HPLC system with 2996 PDA detector using the following conditions; • Column: DAICEL CHIRALPAK IC (5 micrometers, 4.6×250 mm), • Eluent: n-hexane/ethanol/diethylamine=87/13/0.1 (v/v/v), • Detection: UV at 254 nm, • Flow rate: 1 mL/min, and • Column temperature: 40° C. • Data processing is performed with Empower 3 software supplied from Waters Corporation

[4] = Solubility study in buffers and water for injection; assay type: physicochemical; details: aqueous buffer, thermodynamic from solid, buffers pH 1.06, 2.98, 4.44, 7.34, 7.40, 9.22 and WFI, 5 mg in 20 microL
Method: Each 5 mg of HCl-salt Crystalline Form A was weighed in a vial and each 20 microL of buffers (pH 1.06, 2.98, 4.44, 7.34, 7.40 and 9.22) and WFI (water for injection) was added to the vial. After the mixture was shaken with a vortex mixer and stood still for 15 min, no insoluble matter was observed. The mixture kept a clear solution after still standing for 2 days.

motilin receptor = target: T1, motilin receptor (Homo sapiens, UniProt O43193); test: Motilin receptor agonistic activity, reporter gene assay; assay type: cell-based; details: cell expressing motilin receptor and reporter gene; compared with initial sample
T1 construct: 'the cell expressing motilin receptor and reporter gene'
T1 sequence (O43193 whole entry, species assumed): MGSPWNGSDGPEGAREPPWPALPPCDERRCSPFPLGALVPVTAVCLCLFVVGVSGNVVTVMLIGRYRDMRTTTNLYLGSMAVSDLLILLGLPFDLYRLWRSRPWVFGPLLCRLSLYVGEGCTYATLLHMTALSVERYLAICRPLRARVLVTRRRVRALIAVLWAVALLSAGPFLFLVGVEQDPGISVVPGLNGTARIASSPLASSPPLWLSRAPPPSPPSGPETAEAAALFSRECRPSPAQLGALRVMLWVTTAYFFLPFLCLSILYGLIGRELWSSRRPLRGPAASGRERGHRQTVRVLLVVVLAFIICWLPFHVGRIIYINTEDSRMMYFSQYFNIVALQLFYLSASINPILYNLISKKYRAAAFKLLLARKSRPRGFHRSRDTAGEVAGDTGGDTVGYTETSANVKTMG
Description: Motilin receptor agonistic activity is identified by reporter gene assay using the cell expressing motilin receptor and reporter gene. The dose-response curve of assay sample is plotted and calculated to determine an agonistic activity (EC50).

CC1(C)C(=O)N(C2CCN(C(=O)[C@H](CCc3ccccc3)NC(=O)[C@@H]3CCCNC3)CC2)c2ccccc21 [Free-base Amorphous, (R)—N—((S)-1-(4-(3,3-dimethyl-2-oxoindolin-1-yl)piperidin-1-yl)-1-oxo-4-phenylbutan-2-yl)piperidine-3-carboxamide]
arising degradation products (peaks) due to irradiating light ([1]; 13 days): 2 peaks | arising degradation products (peaks) due to irradiating light ([1]; 26 days): 4 peaks | arising degradation products (peaks) due to irradiating light ([1]; 50 days): 4 peaks | other arising degradation products (not existing at Day 0) [2]: four | remaining [2]: 97.2% | weight gain % ([3]; 50% RH): 5.2% | weight gain % ([3]; 60% RH): 7.1% | weight gain % ([3]; 70% RH): 9.5% | weight gain % ([3]; 80% RH): 11.7% | water absorbed (water adsorption) [3]: 17.9 wt % | weight gain % ([3]; 90% RH): 17.9%

CC1(C)C(=O)N(C2CCN(C(=O)[C@H](CCc3ccccc3)NC(=O)[C@@H]3CCCNC3)CC2)c2ccccc21.CS(=O)(=O)O [mesylate salt crystalline, (R)—N—((S)-1-(4-(3,3-dimethyl-2-oxoindolin-1-yl)piperidin-1-yl)-1-oxo-4-phenylbutan-2-yl)piperidine-3-carboxamide methanesulfonic acid salt (mesylate salt)]
water adsorption ([3]; 60% RH): 3.7 wt % | water absorbed (water adsorption) [3]: 16.9 wt %

CC1(C)C(=O)N(C2CCN(C(=O)[C@H](CCc3ccccc3)NC(=O)[C@@H]3CCCNC3)CC2)c2ccccc21.Cl [HCl-salt Amorphous, (R)—N—((S)-1-(4-(3,3-dimethyl-2-oxoindolin-1-yl)piperidin-1-yl)-1-oxo-4-phenylbutan-2-yl)piperidine-3-carboxamide amorphous solid of hydrochloride]
arising degradation products (peaks) due to irradiating light ([1]; 13 days): 2 peaks | arising degradation products (peaks) due to irradiating light ([1]; 26 days): 5 peaks | arising degradation products (peaks) due to irradiating light ([1]; 50 days): 5 peaks | other arising degradation products (not existing at Day 0) [2]: one | remaining [2]: 97.0% | weight gain % ([3]; 50% RH, hydrochloride): 5.2% | weight gain % ([3]; 60% RH, hydrochloride): 7.6% | weight gain % ([3]; 70% RH, hydrochloride): 9.4% | weight gain % ([3]; 80% RH, hydrochloride): 13.3% | water absorbed (water adsorption) ([3]; hydrochloride): 20.5 wt % | weight gain % ([3]; 90% RH, hydrochloride): 20.5%

CC1(C)C(=O)N(C2CCN(C(=O)[C@H](CCc3ccccc3)NC(=O)[C@@H]3CCCNC3)CC2)c2ccccc21.Cl [HCl-salt Crystalline Form B, (R)—N—((S)-1-(4-(3,3-dimethyl-2-oxoindolin-1-yl)piperidin-1-yl)-1-oxo-4-phenylbutan-2-yl)piperidine-3-carboxamide hydrochloride Crystalline Form B]
stability in chiral analysis (Chiral analysis by HPLC): preferable stability | weight gain % ([3]; 50% RH): 0.0% | weight gain % ([3]; 60% RH): 0.0% | weight gain % ([3]; 70% RH): 0.0% | weight gain % ([3]; 80% RH): 4.9% | water absorbed (water adsorption) [3]: ≤ 8.6 wt % | weight gain % ([3]; 90% RH): 8.6%

CC1(C)C(=O)N(C2CCN(C(=O)[C@H](CCc3ccccc3)NC(=O)[C@@H]3CCCNC3)CC2)c2ccccc21 [HCl-salt Crystalline Form A, (R)—N—((S)-1-(4-(3,3-dimethyl-2-oxoindolin-1-yl)piperidin-1-yl)-1-oxo-4-phenylbutan-2-yl)piperidine-3-carboxamide hydrochloride Crystalline Form A]
arising degradation products due to irradiating light ([1]; storing periods of 13, 26 and 50 days): no arising degradation products | stability in chiral analysis (Chiral analysis by HPLC): preferable stability | other arising degradation products (not existing at Day 0) [2]: no other arising degradation products | changes in appearance, XRPD, IR (KBr), m.p. (DSC onset) and potency ([2]; during the storage period): no significant changes | solubility at 15 min [4]: > 250 mg/mL | weight gain % ([3]; 50% RH): 0.0% | weight gain % ([3]; 60% RH): 0.2% | weight gain % ([3]; 70% RH): 0.4% | weight gain % ([3]; 80% RH): 1.6% | water absorbed (water adsorption) [3]: less than or equal to 3.4 wt % | weight gain % ([3]; 90% RH): 3.4% | agonistic activity (EC50) (motilin receptor): high potency consistent with initial sample

CC1(C)C(=O)N(C2CCN(C(=O)[C@H](CCc3ccccc3)NC(=O)[C@@H]3CCCNC3)CC2)c2ccccc21.O=C(O)CNC(=O)c1ccccc1 [hippurate salt crystalline, (R)—N—((S)-1-(4-(3,3-dimethyl-2-oxoindolin-1-yl)piperidin-1-yl)-1-oxo-4-phenylbutan-2-yl)piperidine-3-carboxamide hippuric acid salt (hippurate salt)]
observation in hygroscopicity study ([3]; 90% RH): partial deliquescence is observed | water absorbed (water adsorption) [3]: 16.0 wt %
